Measurements as given in patent publication US8957064B2, “Fused pyrimidines” (Bayer Intellectual Property GmbH, priority 2009, dated 2015).

Columns and labels:
[1] = target: His-tagged human recombinant kinase full-length Akt1 (Homo sapiens (Human), UniProt P31749); test: Akt1 kinase assay (Akt1 TR-FRET assay, Biological Assay 1.0); assay type: biochemical; conditions: 10 μM ATP, 1 μM biotinylated peptide substrate, 60 min at 22° C.
Text: Biological Assay 1.0: Akt1 Kinase Assay
Akt1 inhibitory activity of compounds of the present invention may be quantified employing the Akt1 TR-FRET assay as described in the following paragraphs. His-tagged human recombinant kinase full-length Akt1 expressed in insect cells was purchased form Invitrogen (part number PV 3599). As substrate for the kinase reaction the biotinylated peptide biotin-Ahx-KKLNRTLSFAEPG (C-terminus in amide form) was used which can be purchased e.g. from the company Biosynthan GmbH (Berlin-Buch, Germany).
(§1) For the assay 50 nl of a 100 fold concentrated solution of the test compound in DMSO was pipetted into a black low volume 384 well microtiter plate (Greiner Bio-One, Frickenhausen, Germany), 2 μl of a solution of Akt1 in assay buffer [50 mM TRIS/HCl pH 7.5, 5 mM MgCl2, 1 mM dithiothreitol, 0.02% (v/v) Triton X-100 (Sigma)] were added and the mixture was incubated for 15 min at 22° C. to allow prebinding of the test compounds to the enzyme before the start of the kinase reaction. Then the kinase reaction was started by the addition of 3 μl of a solution of adenosine-tri-phosphate (ATP, 16.7 μM=>final conc. in the 5 μl assay volume is 10 μM) and substrate (1.67 μM=>final conc. in the 5 μl assay volume is 1 μM) in assay buffer and the resulting mixture was incubated for a reaction time of 60 min at 22° C. The concentration of Akt1 in the assay was adjusted depending of the activity of the enzyme lot and was chosen appropriate to have the assay in the linear range, typical enzyme concentrations were in the range of about 0.05 ng/μl (final conc. in the 5 μl assay volume).
(§2) The reaction was stopped by the addition of 5 μl of a solution of HTRF detection reagents (200 nM streptavidine-XL665 [Cisbio] and 1.5 nM anti-phosho-Serine antibody [Millipore, cat. #35-001] and 0.75 nM LANCE Eu-W 1024 labeled anti-mouse IgG antibody [Perkin Elmer]) in an aqueous EDTA-solution (100 mM EDTA, 0.1% (w/v) bovine serum albumin in 50 mM HEPES/NaOH pH 7.5).
(§3) The resulting mixture was incubated 1 h at 22° C. to allow the binding of the biotinylated phosphorylated peptide to the streptavidine-XL665 and the antibodies. Subsequently the amount of phosphorylated substrate was evaluated by measurement of the resonance energy transfer from the anti-mouse-IgG-Eu-Chelate to the streptavidine-XL665. Therefore, the fluorescence emissions at 620 nm and 665 nm after excitation at 350 nm was measured in a HTRF reader, e.g. a Rubystar (BMG Labtechnologies, Offenburg, Germany) or a Viewlux (Perkin-Elmer). The ratio of the emissions at 665 nm and at […] was taken as the measure for the amount of phosphorylated substrate. The data were normalised (enzyme reaction without inhibitor=0% inhibition, all other assay components but no enzyme=100% inhibition).

[2] = target: His-tagged human recombinant kinase full-length Akt2 activated by PDK1 (Homo sapiens (Human), UniProt P31751); test: Akt2 kinase assay (Akt2 TR-FRET assay, Biological Assay 2.0); assay type: biochemical; conditions: 10 μM ATP, 1 μM biotinylated peptide substrate, 60 min at 22° C.
Text: Biological Assay 2.0: Akt2 Kinase Assay
Akt2 inhibitory activity of compounds of the present invention was quantified employing the Akt2 TR-FRET assay as described in the following paragraphs.
His-tagged human recombinant kinase full-length Akt2 expressed in insect cells and activated by PDK1 was purchased form Invitrogen (part number PV 3975). As substrate for the kinase reaction the biotinylated peptide biotin-Ahx-KKLNRTLSFAEPG (C-terminus in amide form) was used which can be purchased e.g. from the company Biosynthan GmbH (Berlin-Buch, Germany).
as §1, with “Akt2” for “Akt1”, “0.2” for “0.05”
as §2
as §3, with “TR-FRET” for “HTRF”

Chain of His-tagged human recombinant kinase full-length Akt1 (P31749 whole entry): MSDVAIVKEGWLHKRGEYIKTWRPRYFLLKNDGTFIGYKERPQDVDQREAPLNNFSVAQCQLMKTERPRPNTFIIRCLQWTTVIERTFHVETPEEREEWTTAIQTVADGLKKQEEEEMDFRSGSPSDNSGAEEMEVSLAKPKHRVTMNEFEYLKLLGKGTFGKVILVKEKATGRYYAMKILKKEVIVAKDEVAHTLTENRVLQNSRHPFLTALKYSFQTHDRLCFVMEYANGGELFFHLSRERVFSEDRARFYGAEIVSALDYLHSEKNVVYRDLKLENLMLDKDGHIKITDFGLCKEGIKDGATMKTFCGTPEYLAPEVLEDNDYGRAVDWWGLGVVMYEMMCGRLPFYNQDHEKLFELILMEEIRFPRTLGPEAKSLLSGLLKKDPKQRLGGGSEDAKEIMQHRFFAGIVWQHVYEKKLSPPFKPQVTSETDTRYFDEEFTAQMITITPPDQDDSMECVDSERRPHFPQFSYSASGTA
Chain of His-tagged human recombinant kinase full-length Akt2 activated by PDK1 (P31751 whole entry): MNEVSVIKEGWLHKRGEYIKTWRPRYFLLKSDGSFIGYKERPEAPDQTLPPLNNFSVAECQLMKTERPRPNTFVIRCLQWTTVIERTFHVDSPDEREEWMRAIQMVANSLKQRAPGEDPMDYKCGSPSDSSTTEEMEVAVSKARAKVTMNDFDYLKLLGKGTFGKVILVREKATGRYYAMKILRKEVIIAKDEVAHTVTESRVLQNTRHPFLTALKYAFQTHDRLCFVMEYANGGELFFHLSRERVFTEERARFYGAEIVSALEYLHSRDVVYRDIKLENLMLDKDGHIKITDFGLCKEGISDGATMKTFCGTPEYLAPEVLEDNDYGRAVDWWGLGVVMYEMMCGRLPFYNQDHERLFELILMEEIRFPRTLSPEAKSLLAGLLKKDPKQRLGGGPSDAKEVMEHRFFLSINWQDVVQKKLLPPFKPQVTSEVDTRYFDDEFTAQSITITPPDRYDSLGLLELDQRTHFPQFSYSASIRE

SMILES | IC50 [1] [nM] | IC50 [2] [nM]
Cc1nc2nc(-c3ccc(CN4CCC(c5n[nH]c(-c6ccccn6)n5)C4)cc3)c(-c3ccccc3)cn2n1 (racemic) [Example 24.0, (±)-2-methyl-6-phenyl-5-{4-[3-(5-pyridin-2-yl-1H-[1,2,4]triazol-3-yl)-pyrrolidin-1-ylmethyl]-phenyl}-[1,2,4]triazolo[1,5-a]pyrimidine] | 44 | 435
c1ccc(-c2cn3ccnc3nc2-c2ccc(CN3CC(c4nnc(-c5ccccn5)[nH]4)C3)cc2)cc1 [Example 1.0, 6-phenyl-7-(4-{[3-(5-pyridin-2-yl-1,2,4-triazol-3-yl)azetidin-1-yl]methyl}phenyl)imidazo[1,2-a]pyrimidine] | < 50 | < 500
Cc1nc2nc(-c3ccc(CN4CC(c5nnc(-c6ccccn6)[nH]5)C4)cc3)c(-c3ccccc3)cn2n1 [Example 2.0, 2-methyl-6-phenyl-5-(4-{[3-(5-pyridin-2-yl-1,2,4-triazol-3-yl)azetidin-1-yl]methyl}phenyl)[1,2,4]triazolo[1,5-a]pyrimidine] | 23 | 65
Fc1cnc2nc(-c3ccc(CN4CC(c5nnc(-c6ccccn6)[nH]5)C4)cc3)c(-c3ccccc3)cn12 [Example 4.0, 3-fluoro-6-phenyl-7-(4-{[3-(5-pyridin-2-yl-1,2,4-triazol-3-yl)azetidin-1-yl]methyl}phenyl)imidazo[1,2-a]pyrimidine] | < 50 | < 50
Clc1cnc2nc(-c3ccc(CN4CC(c5nnc(-c6ccccn6)[nH]5)C4)cc3)c(-c3ccccc3)cn12 [Example 5.0, 3-Chloro-6-phenyl-7-(4-{[3-(5-pyridin-2-yl-1,2,4-triazol-3-yl)azetidin-1-yl]methyl}phenyl)imidazo[1,2-a]pyrimidine] | 6 | 11
c1ccc(-c2cn3ccnc3nc2-c2ccc(CN3CCC(c4nc5ccncc5[nH]4)CC3)cc2)cc1 [Example 6.0, 2-{1-[4-(6-phenyl-imidazo[1,2-a]pyrimidin-7-yl)-benzyl]-piperidin-4-yl}-3H-imidazo[4,5-c]pyridine] | 157 | 1220
c1ccc(-c2cn3ccnc3nc2-c2ccc(CN3CCC(c4nc5cccnc5[nH]4)CC3)cc2)cc1 [Example 7.0, 2-{1-[4-(6-phenyl-imidazo[1,2-a]pyrimidin-7-yl)-benzyl]-piperidin-4-yl}-3H-imidazo[4,5-b]pyridine] | 56 | 607
N#Cc1ccc2nc(C3CCN(Cc4ccc(-c5nc6nccn6cc5-c5ccccc5)cc4)CC3)[nH]c2c1 [Example 9.0, 2-{1-[4-(6-Phenyl-imidazo[1,2-a]pyrimidin-7-yl)-benzyl]-piperidin-4-yl}-3H-benzimidazole-5-carbonitrile] | 83 | 426
c1ccc(-c2cn3ccnc3nc2-c2ccc(CN3CCC(c4cnc5ccccc5n4)CC3)cc2)cc1 [Example 10.0, 2-{1-[4-(6-phenyl-imidazo[1,2-a]pyrimidin-7-yl)-benzyl]-piperidine-4-yl}-quinoxaline] | 4 | 9
N#Cc1ccc2nc(C3CCN(Cc4ccc(-c5nc6ccnn6cc5-c5ccccc5)cc4)CC3)[nH]c2c1 [Example 12.0, 2-{1-[4-(6-phenyl-pyrazolo[1,5-a]pyrimidin-5-yl)-benzyl]-piperidin-4-yl}-3H-benzimidazol-5-carbonitrile] | 39 | 316
Cc1nc2nc(-c3ccc(CN4CCC(c5nc6ccc(F)cc6[nH]5)CC4)cc3)c(-c3ccccc3)cn2n1 [Example 13.0, 5-{4-[4-(6-fluoro-1H-benzoimidazol-2-yl)-piperidin-1-ylmethyl]-phenyl}-2-methyl-6-phenyl-[1,2,4]triazolo[1,5-a]pyrimidine] | 112 | 228
Cc1nc2nc(-c3ccc(CN4CCC(c5nc6ccncc6[nH]5)CC4)cc3)c(-c3ccccc3)cn2n1 [Example 14.0, 5-{4-[4-(3H-imidazo[4,5-c]pyridin-2-yl)-piperidin-1-ylmethyl]-phenyl}-2-methyl-6-phenyl-[1,2,4]triazolo[1,5-a]pyrimidine] | 3000 | 5840
c1ccc(-c2cn3nccc3nc2-c2ccc(CN3CCC(c4nc5cccnc5[nH]4)CC3)cc2)cc1 [Example 16.0, 2-{1-[4-(6-phenyl-pyrazolo[1,5-a]pyrimidin-5-yl)-benzyl]-piperidin-4-yl}-3H-imidazo[4,5-b]pyridine] | 42 | 1080
FC(F)(F)c1ccc2nc(C3CCN(Cc4ccc(-c5nc6ccnn6cc5-c5ccccc5)cc4)CC3)[nH]c2c1 [Example 17.0, 6-phenyl-5-{4-[4-(6-trifluoromethyl-1H-benzimidazol-2-yl)piperidin-1-ylmethyl]-phenyl}-pyrazolo[1,5-a]pyrimidine] | 338 | > 20000
Fc1ccc2nc(C3CCN(Cc4ccc(-c5nc6ccnn6cc5-c5ccccc5)cc4)CC3)[nH]c2c1 [Example 18.0, 5-{4-[4-(6-fluoro-1H-benzimidazol-2-yl)-piperidin-1-ylmethyl]-phenyl}-6-phenyl-pyrazolo[1,5-a]pyrimidine] | 42 | 1090
Nc1ncnc2c1cnn2C1CCN(Cc2ccc(-c3nc4ccnn4cc3-c3ccccc3)cc2)CC1 [Example 19.0, 1-{1-[4-(6-phenyl-pyrazolo[1,5-a]pyrimidin-5-yl)-benzyl]-piperidin-4-yl}-1H-pyrazolo[3,4-d]pyrimidin-4-ylamine] | 25 | 332
Cc1nc2nc(-c3ccc(CN4CCC(c5nc6ccc(C#N)cc6[nH]5)CC4)cc3)c(-c3ccccc3)cn2n1 [Example 20.0, 2-{1-[4-(2-methyl-6-phenyl-[1,2,4]triazolo[1,5-a]pyrimidin-5-yl)benzyl]-piperidin-4-yl}-3H-benzimidazole-5-carbonitrile] | 525 | 1010
Cc1nc2nc(-c3ccc(CN4CCC(c5nc6ccc(C(F)(F)F)cc6[nH]5)CC4)cc3)c(-c3ccccc3)cn2n1 [Example 21.0, 2-methyl-6-phenyl-5-{4-[4-(6-trifluoromethyl-1H-benzimidazol-2-yl)-piperidin-1-ylmethyl]-phenyl}-[1,2,4]-triazolo[1,5-a]pyrimidine] | 1450 | 2500
CNc1nc2nc(-c3ccc(CN4CC(c5n[nH]c(-c6ccccn6)n5)C4)cc3)c(-c3ccccc3)cn2n1 [Example 43.0, methyl-(6-phenyl-5-{4-[3-(5-pyridin-2-yl-1H-[1,2,4]triazol-3-yl)azetidin-1-ylmethyl]-phenyl}-[1,2,4]triazolo[1,5-a]pyrimidin-2-yl)-amine] | 63 | 
